Source: PubChem BioAssay (NCI)
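Step 1: Grow cells in 96-well plates. Step 2: Expose to compound for 48 hours at 5 concentrations. Step 3: Interpolate endpoints linearly; if unreached, use highest concentration. The concentration for 50% growth inhibition is given as GI50. TGI: total growth inhibition.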

Assays:
Test in all cases: DTP human tumour cell line panel, 48 h
ACHN renal = system: ACHN renal
K-562 leukemia = system: K-562 leukemia
MALME-3M melanoma = system: MALME-3M melanoma
UACC-257 melanoma = system: UACC-257 melanoma
OVCAR-5 ovarian = system: OVCAR-5 ovarian
HL-60(TB) leukemia = system: HL-60(TB) leukemia
MCF7 breast = system: MCF7 breast
OVCAR-4 ovarian = system: OVCAR-4 ovarian
TK-10 renal = system: TK-10 renal
SNB-75 CNS = system: SNB-75 CNS
HOP-62 NSCLC = system: HOP-62 NSCLC
HOP-92 NSCLC = system: HOP-92 NSCLC
MDA-MB-435 = system: MDA-MB-435
EKVX NSCLC = system: EKVX NSCLC
M14 melanoma = system: M14 melanoma
NCI-H460 lung = system: NCI-H460 lung
SK-MEL-5 melanoma = system: SK-MEL-5 melanoma
RPMI-8226 leukemia = system: RPMI-8226 leukemia
SF-295 CNS = system: SF-295 CNS
LOX IMVI melanoma = system: LOX IMVI melanoma
MOLT-4 leukemia = system: MOLT-4 leukemia
HCC-2998 colon = system: HCC-2998 colon
T-47D breast = system: T-47D breast
CAKI-1 renal = system: CAKI-1 renal
MDA-MB-231 breast = system: MDA-MB-231 breast
786-0 renal = system: 786-0 renal
RXF 393 renal = system: RXF 393 renal
DU-145 prostate = system: DU-145 prostate
COLO 205 colon = system: COLO 205 colon

Compound `Nc1ccc(/C=C/c2ccc3ncccc3c2)cc1` has a GI50 (ACHN renal) of over 100 µM, a TGI (ACHN renal) of over 100 µM and a GI50 (K-562 leukemia) of over 100 µM. It also gave a TGI (K-562 leukemia) of over 100 µM, a GI50 (MALME-3M melanoma) of over 100 µM and a TGI (MALME-3M melanoma) of over 100 µM. For the same compound, the GI50 (UACC-257 melanoma) was over 100 µM, the TGI (UACC-257 melanoma) was over 100 µM and the GI50 (OVCAR-5 ovarian) was over 100 µM. The TGI (OVCAR-5 ovarian) was over 100 µM, the GI50 (HL-60(TB) leukemia) was 1.52 µM and the TGI (HL-60(TB) leukemia) was over 100 µM. It also gave a GI50 (MCF7 breast) of over 100 µM, a TGI (MCF7 breast) of over 100 µM and a GI50 (OVCAR-4 ovarian) of over 100 µM. For the same compound, the TGI (OVCAR-4 ovarian) was over 100 µM, the GI50 (TK-10 renal) was 86.5 µM and the TGI (TK-10 renal) was over 100 µM. For the same compound, the GI50 (SNB-75 CNS) was 37.1 µM, the TGI (SNB-75 CNS) was over 100 µM and the GI50 (HOP-62 NSCLC) was over 100 µM. For the same compound, the TGI (HOP-62 NSCLC) was over 100 µM, the GI50 (HOP-92 NSCLC) was 12.9 µM and the TGI (HOP-92 NSCLC) was over 100 µM. The GI50 (MDA-MB-435) was over 100 µM, the TGI (MDA-MB-435) was over 100 µM and the GI50 (EKVX NSCLC) was 31.7 µM. The TGI (EKVX NSCLC) was over 100 µM, the GI50 (M14 melanoma) was over 100 µM and the TGI (M14 melanoma) was over 100 µM. For the same compound, the GI50 (NCI-H460 lung) was over 100 µM, the TGI (NCI-H460 lung) was over 100 µM and the GI50 (SK-MEL-5 melanoma) was over 100 µM. The TGI (SK-MEL-5 melanoma) was over 100 µM, the GI50 (RPMI-8226 leukemia) was 6.89 µM and the TGI (RPMI-8226 leukemia) was over 100 µM. For the same compound, the GI50 (SF-295 CNS) was 70.3 µM, the TGI (SF-295 CNS) was over 100 µM and the GI50 (LOX IMVI melanoma) was 75 µM. For the same compound, the TGI (LOX IMVI melanoma) was over 100 µM, the GI50 (MOLT-4 leukemia) was over 100 µM and the TGI (MOLT-4 leukemia) was over 100 µM. For the same compound, the GI50 (HCC-2998 colon) was over 100 µM, the TGI (HCC-2998 colon) was over 100 µM and the GI50 (T-47D breast) was over 100 µM. It also gave a TGI (T-47D breast) of over 100 µM, a TGI (CAKI-1 renal) of over 100 µM and a GI50 (MDA-MB-231 breast) of 2.09 µM. It also gave a TGI (MDA-MB-231 breast) of over 100 µM, a GI50 (786-0 renal) of over 100 µM and a TGI (786-0 renal) of over 100 µM. For the same compound, the GI50 (RXF 393 renal) was 73.2 µM, the TGI (RXF 393 renal) was over 100 µM and the GI50 (DU-145 prostate) was over 100 µM. It also gave a TGI (DU-145 prostate) of over 100 µM, a GI50 (COLO 205 colon) of over 100 µM and a TGI (COLO 205 colon) of over 100 µM.
